Columns and labels:
[1] = molecular target: T1, Usp14/26S proteasome complexes (Homo sapiens, UniProt P54578); assay: Ub-AMC hydrolysis by VS-proteasomes reconstituted with recombinant Usp14; assay type: biochemical
T1 construct: GST (N, cleaved yes); made in house; host or cells: E. coli Rosetta 2 (DE3) for Usp14
Protocol: Compounds were screened for Usp14/26S inhibition in 384-well low-volume plates in duplicate. Data processing was done by a robust Z-score method and each compound was plotted using Spotfire software. Compounds over the cut-off of Z>5 were mostly autofluorescent and were therefore not counted. To exclude quenching compounds that only affect AMC fluorescence, 312 primary hits were tested for quenching of AMC amine, and pure quenchers were scored as false-positives and excluded from further analysis (FIG. 8B).
The data plot of each experiment was fit into a four parameter logistic model (the Hill-slope model) based on guidelines from the NIH Chemical Genomics Center.

oxidized proteins = assay: Oxidized protein accumulation after menadione (DNPH immunoblot); assay type: cell-based; details: MEFs, 75 μM IU1 4 hours, then 63 μM menadione 45 minutes
Source text: Oxidized proteins form another class of proteasome substrates that play an important role in human health. Harmful oxidized proteins accumulate upon ageing and are implicated in a variety of age-related diseases and disorders (Stadtman (2006) Protein oxidation and aging. Free Radic. Res. 40, 1250-1258; Ahmed et al. (2007) Protein oxidative modifications and replicative senescence of WI-38 human embryonic fibroblasts. Ann. NY Acad. Sci., 1119, 88-96; Moskovitz et al. (2001). Methionine sulfoxide reductase (MsrA) is a regulator of antioxidant defense and lifespan in mammals. Proc. Nat. Acad. Sci. USA, […], 12920-12925.). Protein oxidation was induced by treating cells with menadione, and oxidized species were visualized using an antibody specific for protein carbonyls. […] The cells were lysed and lysates were incubated with DNPH and immunoblotted with anti-DNPH antibody to assay for oxidized proteins.

[2] = molecular target: T2, Usp14/proteasome complexes (Homo sapiens, UniProt P54578); assay: Usp14 binding to purified proteasome (immunoblot); details: various concentrations of IU1
T2 construct: GST (N, cleaved yes); made in house; host or cells: E. coli Rosetta 2 (DE3) for Usp14
Source text: The asterisk (*) denotes a nonspecific signal generated by the anti-Usp14 antibody.

UbB, α6, α7 = assay: Quantitative RT-PCR of ubiquitin and proteasome subunit genes in MEFs; assay type: cell-based; details: +/+ and Usp14−/− MEFs, graded doses, 6 hr
[3] = molecular target: T3, proteasome-bound form of Uch37 (Homo sapiens, UniProt Q9Y5K5); assay: Ub-AMC hydrolysis by 26S proteasomes not treated with Ub-VS (lacking Usp14); assay type: biochemical
T3 construct: endogenous in cells

ataxin-3 = assay: Ataxin-3 depletion in MEF cells (immunoblot); assay type: cell-based; details: 50 or 100 μM IU1
Protocol: (§1) Other proteins that have been implicated in proteotoxic mechanisms were also tested.

[4] = system: glial fibrillary acidic protein (GFAP); assay: GFAP depletion in MEF cells (immunoblot); assay type: cell-based; details: MEF cells, 25, 50 or 100 μM IU1
Protocol: as §1

[5] = Hydrogen peroxide toxicity; assay type: cell-based; details: data not shown
MEF cells [6] = assay: MTT cell survival upon menadione oxidative stress, MEF; assay type: cell-based
Source text: The effect on the IC50 for menadione is almost 4-fold.

[7] = system: MEF, HEK293 and HeLa cells; assay: MTT cell viability assay; assay type: cell-based; details: MTT after 6, 12, 24 or 48 hours
Protocol: (§2) Effects on cell viability became apparent at concentrations over 100 μM, well above the doses required to enhance the degradation of Tau, TDP-43, ataxin-3, and oxidized proteins (FIGS. 21-23).

[8] = Cellular entry, release and stability of compound (LC/MS, UV absorption)
Source text: Cell lysates were collected and ethyl acetate extraction was used to prepare mass spectrometer samples.

[9] = system: eight deubiquitinating enzymes of human origin; assay: Deubiquitinase selectivity panel (Ub-AMC hydrolysis); assay type: biochemical; details: 17 μM
Tau = Tau degradation in MEF cells (immunoblot, RT-PCR); assay type: cell-based
Source text: No effect was seen on Tau mRNA levels (FIG. 21B).

[10] = molecular target: T4, Usp14 that had not been loaded onto a proteasome (Homo sapiens, UniProt P54578); assay: Activity of Usp14 not complexed to the proteasome; assay type: biochemical
T4 construct: GST (N, cleaved yes); made in house; host or cells: E. coli Rosetta 2 (DE3)
T4 sequence (P54578 whole entry): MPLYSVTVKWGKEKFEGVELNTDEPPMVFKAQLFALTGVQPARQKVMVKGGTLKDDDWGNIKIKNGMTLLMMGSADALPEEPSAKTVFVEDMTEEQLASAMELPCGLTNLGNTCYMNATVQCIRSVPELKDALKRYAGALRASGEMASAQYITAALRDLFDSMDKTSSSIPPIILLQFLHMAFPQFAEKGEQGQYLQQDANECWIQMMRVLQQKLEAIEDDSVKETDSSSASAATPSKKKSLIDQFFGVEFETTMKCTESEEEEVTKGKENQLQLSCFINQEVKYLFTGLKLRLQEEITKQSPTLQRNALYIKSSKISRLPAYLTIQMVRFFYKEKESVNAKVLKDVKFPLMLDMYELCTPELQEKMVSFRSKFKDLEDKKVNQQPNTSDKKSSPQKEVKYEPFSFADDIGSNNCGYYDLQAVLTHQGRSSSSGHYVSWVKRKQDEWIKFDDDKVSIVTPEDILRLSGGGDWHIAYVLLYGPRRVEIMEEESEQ

[11] = molecular target: T5, Usp14-containing proteasomes (Homo sapiens, UniProt P54578); assay: In vitro Ubn-ClnB degradation assay; assay type: biochemical
T5 construct: GST (N, cleaved yes); made in house; host or cells: E. coli Rosetta 2 (DE3) for Usp14
Source text: (§3) The effect of Usp14 on the degradation of ubiquitinated substrates was examined using an in vitro degradation assay using the ubiquitin-dependent proteasome substrate polyubiquitinated cyclin B (Ubn-ClnB).
It was next tested whether IU1 could serve as an enhancer of substrate degradation by the proteasome.

Isopeptidase T (IsoT) = Isopeptidase T (IsoT) (Homo sapiens, UniProt P45974); assay: Isopeptidase T deubiquitinase activity; assay type: biochemical; details: 8 μM, 17 μM
Sequence of Isopeptidase T (IsoT) (P45974 whole entry): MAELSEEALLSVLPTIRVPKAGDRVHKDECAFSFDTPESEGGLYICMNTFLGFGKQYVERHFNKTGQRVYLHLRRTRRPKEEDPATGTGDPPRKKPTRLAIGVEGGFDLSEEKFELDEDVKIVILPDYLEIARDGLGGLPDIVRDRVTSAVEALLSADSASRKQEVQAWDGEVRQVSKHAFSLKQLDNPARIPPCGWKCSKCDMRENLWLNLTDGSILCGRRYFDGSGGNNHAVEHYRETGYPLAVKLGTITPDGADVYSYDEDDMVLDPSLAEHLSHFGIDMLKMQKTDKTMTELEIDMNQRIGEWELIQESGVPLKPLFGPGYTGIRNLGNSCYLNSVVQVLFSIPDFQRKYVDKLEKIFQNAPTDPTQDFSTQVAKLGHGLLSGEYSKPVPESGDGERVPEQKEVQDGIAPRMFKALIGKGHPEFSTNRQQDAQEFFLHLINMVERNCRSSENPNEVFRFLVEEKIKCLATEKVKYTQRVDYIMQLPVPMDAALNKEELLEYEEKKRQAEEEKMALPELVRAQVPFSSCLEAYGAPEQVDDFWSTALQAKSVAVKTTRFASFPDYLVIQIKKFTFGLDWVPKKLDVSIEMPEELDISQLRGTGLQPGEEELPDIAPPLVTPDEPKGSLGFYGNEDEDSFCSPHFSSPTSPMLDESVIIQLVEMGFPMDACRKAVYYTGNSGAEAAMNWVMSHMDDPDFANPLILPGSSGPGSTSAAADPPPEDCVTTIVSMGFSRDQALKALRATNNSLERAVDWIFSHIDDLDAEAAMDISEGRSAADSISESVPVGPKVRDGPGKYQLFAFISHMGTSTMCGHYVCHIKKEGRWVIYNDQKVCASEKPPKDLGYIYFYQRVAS

proteasome = assay: Proteasome integrity by native PAGE of total cell extracts; assay type: cell-based; details: 100 μM IU1, 6-hr
Source text: RP2-CP and RP-CP indicate distinct forms of the 26S proteasome.

[12] = molecular target: T2, Usp14/proteasome complexes; assay: In vitro ubiquitin chain trimming assay with polyubiquitinated cyclin B; assay type: biochemical
Protocol: Immunoblot was performed using an antibody specific for human cyclin B (CCNB).
as §3
To separate chain trimming from substrate degradation, these assays were done in the presence of proteasome inhibitors. The effectiveness of the proteasome inhibitors is evidenced by the accumulation of unmodified cyclin B in the assay (FIG. 15).

MEFs and 293 cells = assay: Cell proliferation by real-time microscopy (confluency); assay type: cell-based
[13] = Compound concentration in serum-containing media / release, 293 cells; assay type: in vitro ADME; details: 1 hr to 48 hr
Protocol: The experiment was performed as in FIG. 42A.

MEF cells [14] = assay: TUNEL apoptosis assay; assay type: cell-based; details: 100 μM IU1, 6 hr
Protocol: as §2

TDP-43 = TDP-43 depletion in MEF cells (immunoblot); assay type: cell-based; details: 75 μM IU1
Protocol: as §1

GFP-ODC = assay: Degradation of ubiquitin-independent proteasome substrate in cells; assay type: cell-based
Protocol: Proteasome inhibitors (30 μM MG132, 10 μM PS-341) were treated 4 hr before lysis.
as §1

Usp14 = Usp14 (Homo sapiens, UniProt P54578); assay: Mass spectrometry analysis of IU1 inhibited Usp14; assay type: binding
Sequence of Usp14 (P54578 whole entry): as the sequence (P54578 whole entry) above

murine Psmb5 promoter = assay: Psmb5 promoter luciferase reporter in MEFs; assay type: cell-based; details: wild-type and Usp14−/− MEFs, 25 or 50 μM, 8 hr
Protocol: For normalization of luciferase activity, a control experiment using the promoter-less pGL3 plasmid was performed. Values are mean±SD from three independent experiments. RLU, relative light units.

HEK293 cells = assay: MTT cell survival upon menadione oxidative stress, HEK293; assay type: cell-based, human; details: 6 hr, menadione 4 hr
mCherry-NBR1 = mCherry-NBR1 immunofluorescence in wild-type MEFs; assay type: cell-based; details: 200 μM, 6 hr

Cc1cc(C(=O)CN2CCCC2)c(C)n1-c1ccc(F)cc1 [IU1, 1-[1-(4-fluorophenyl)-2,5-dimethlypyrrol-3-yl]-2-pyrrolidin-1-ylethanone]
lag period of inhibition ([1]; IU1 100 μM added 30 min after 1 μM Ub-AMC, 2.5 nM proteasome, 30 nM USP14): without a detectable lag period
reversibility of inhibition of Usp14 ([1]; activity after up to three ultrafiltration spins): rapidly reversible
inhibition of Usp14 deubiquitinase ([1]; proteasome-bound Usp14, Ub-AMC): potent inhibitor of proteasome-bound Usp14
accumulation of oxidized proteins (oxidized proteins): reduced
effect on Usp14 complexing with the proteasome [2]: did not antagonize Usp14 complexing with the proteasome
transcription of UbB (UbB, α6, α7): does not induce the transcription
transcription of α6 (UbB, α6, α7): does not induce the transcription
transcription of α7 (UbB, α6, α7): does not induce the transcription
inhibition of proteasome-bound Uch37 [3]: does not inhibit
ataxin-3 level in cells (ataxin-3): similarly depleted
GFAP level in cells [4]: similarly depleted
hydrogen peroxide toxicity [5]: reduced the toxicity
effect on cell survival upon oxidative stress (MEF cells [6]): show this effect as well
concentration at which effects on cell viability became apparent [7]: over 100 μM
time to reach steady-state concentration within cells ([8]; 50 μM added to medium, MEFs): ≤ 1 h
steady-state concentration within cells ([8]; 50 μM added to medium, MEFs, LC/MS): ~19 µM
release of internalized compound from wild-type MEF cells ([8]; 50 μM for one hour, then fresh media): rapid release
concentration in serum-containing media of Usp14−/− MEF cells ([8]; 1 hr to 48 hr): comparable concentration
inhibition of other tested deubiquitinating enzymes [9]: failed to significantly inhibit
specificity for USP14 versus Ub-AMC concentration ([9]; lower concentrations of Ub-AMC): observed independently of Ub-AMC concentration
Tau levels (Tau; MEF cells, 25 to 100 μM, 6 hours): reduced Tau levels at all concentrations tested
Tau mRNA levels (Tau; MEF cells, 25 to 100 μM, quantitative RT-PCR): No effect
dependence of Tau degradation stimulation on autophagy (Tau; wild-type MEF, 75 μM IU1 and/or BafA1, 6 hrs): not mediated by autophagy
inhibition of Usp14 not complexed to the proteasome [10]: failed to inhibit
degradation of Ub-cyclin B by Usp14-containing proteasomes ([11]; 34 μM IU1): stimulated the activity of Usp14-containing proteasomes
substrate degradation or chain trimming by proteasomes that lack Usp14 ([11]; 34 μM IU1): no effect
cyclin B degradation in the presence of USP14-CA ([11]; catalytically inactive USP14): does not affect cyclin B degradation
inhibition of Isopeptidase T (Isopeptidase T (IsoT)): lack of inhibition
integrity of proteasome (proteasome): does not affect the integrity of proteasome
concentration effective at inhibition of chain trimming ([12]; proteasome purified and assayed in presence of ADP): approximately 5 μM
chain trimming, Usp14/proteasome complexes ([12]; with Usp14, presence of proteasome inhibitors): reduced the chain trimming to a level similar to that of the proteasome complexes that lacked Usp14
release of ubiquitin chains from cyclin B, proteasomes that lack Usp14 ([12]; without Usp14, presence of proteasome inhibitors): little or no effect
inhibition of cellular proliferation at 120 μM (MEFs and 293 cells; 120 μM): only a slight inhibition
inhibition of cellular proliferation at lower concentrations (MEFs and 293 cells; below 120 μM): no apparent inhibition
concentration in serum-containing media of HEK293 cells [13]: comparable concentration
induction of apoptosis (MEF cells [14]): did not noticeably induce apoptosis
TDP-43 level in cells (TDP-43): similarly depleted
degradation of GFP-ODC (GFP-ODC): little or no effect
covalent IU1-Usp14 adducts (Usp14): failed to detect any covalent IU1-Usp14 adducts
transcription of Psmb5 gene (murine Psmb5 promoter): does not induce the transcription
effect on the IC50 for menadione (HEK293 cells; IU1 50 uM): ~4 fold
menadione toxicity (HEK293 cells; compound 50 uM): reduced this toxicity substantially

CO/C1=C\C(C)=C\[C@@H](C)[C@@H](O)[C@@H](C)C/C(C)=C/C=C/[C@H](OC)[C@@H]([C@@H](C)[C@@H](O)[C@H](C)[C@@]2(O)C[C@@H](O)[C@H](C)[C@@H](C(C)C)O2)OC1=O [bafilomycin A1]
immunofluorescence signal of mCherry-NBR1 (mCherry-NBR1): significantly increased

Source: patent US10351568B2, “Compositions and methods for enhancing proteasome activity” (President and Fellows of Harvard College, priority 2010, dated 2019)
